Laboratory results from ChEMBL document CHEMBL1201862, “PubChem BioAssay data set” (2004).
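Cultured in 96-well plates, cells were exposed to test compound for 48 hours across five concentrations. Abbreviation: GI50, concentration required for 50% inhibition of growth.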 Calls of active or inactive are those of the source. Rule as the data show it: active = GI50 up to about 1.1 µM and inactive = higher.

Columns and labels:
Test in all cases: NCI tumour cell line growth inhibition, 48 h
786-0 = system: 786-0
A498 = system: A498
A549 = system: A549
ACHN = system: ACHN
BT-549 = system: BT-549
CAKI-1 = system: CAKI-1
CCRF-CEM = system: CCRF-CEM
COLO 205 = system: COLO 205
DU-145 = system: DU-145
EKVX = system: EKVX
HCC 2998 = system: HCC 2998
HCT-116 = system: HCT-116
HCT-15 = system: HCT-15
HL-60 = system: HL-60
HOP-62 = system: HOP-62
HOP-92 = system: HOP-92
HT-29 = system: HT-29
Hs-578T = system: Hs-578T
K562 = system: K562
KM12 = system: KM12
LOX IMVI = system: LOX IMVI
M14 = system: M14
MCF7 = system: MCF7
MDA-MB-231 = system: MDA-MB-231
MDA-MB-435 = system: MDA-MB-435
MDA-N = system: MDA-N
MOLT-4 = system: MOLT-4
Malme-3M = system: Malme-3M
NCI-H226 = system: NCI-H226
NCI-H23 = system: NCI-H23
NCI-H460 = system: NCI-H460
NCI-H522 = system: NCI-H522
NCI/ADR-RES = system: NCI/ADR-RES
OVCAR-3 = system: OVCAR-3
OVCAR-4 = system: OVCAR-4
OVCAR-5 = system: OVCAR-5
OVCAR-8 = system: OVCAR-8
PC-3 = system: PC-3
RXF 393 = system: RXF 393
SF-268 = system: SF-268
SF-295 = system: SF-295
SF-539 = system: SF-539
SK-MEL-28 = system: SK-MEL-28
SK-MEL-2 = system: SK-MEL-2
SK-MEL-5 = system: SK-MEL-5
SK-OV-3 = system: SK-OV-3
SN12C = system: SN12C
SNB-19 = system: SNB-19
SNB-75 = system: SNB-75
SR = system: SR
SW-620 = system: SW-620
T47D = system: T47D
TK-10 = system: TK-10
U-251 = system: U-251
UACC-257 = system: UACC-257
UACC-62 = system: UACC-62
UO-31 = system: UO-31
IGROV-1 = system: IGROV-1
RPMI-8226 = system: RPMI-8226

COc1cccc(N2C(=O)CSC2c2cccc(Oc3ccccc3)c2)c1 (stereo not given) was tested, and the GI50 (786-0) was 6.47 µM (inactive), the GI50 (A498) was 3.94 µM (inactive) and the GI50 (A549) was 9.53 µM (inactive). For the same compound, the GI50 (ACHN) was 6.17 µM (inactive), the GI50 (BT-549) was 12.3 µM (inactive) and the GI50 (CAKI-1) was 2.03 µM (inactive). The GI50 (CCRF-CEM) was 9.33 µM (inactive), the GI50 (COLO 205) was 3.37 µM (inactive) and the GI50 (DU-145) was 20.4 µM (inactive). For the same compound, the GI50 (EKVX) was 13.8 µM (inactive), the GI50 (HCC 2998) was 3.14 µM (inactive) and the GI50 (HCT-116) was 3.61 µM (inactive). The GI50 (HCT-15) was 4.21 µM, the GI50 (HL-60) was 4.39 µM (inactive) and the GI50 (HOP-62) was 9.38 µM (inactive). The GI50 (HOP-92) was 6.21 µM (inactive), the GI50 (HT-29) was 4.28 µM (inactive) and the GI50 (Hs-578T) was 5.78 µM (inactive). The GI50 (K562) was 3.42 µM (inactive), the GI50 (KM12) was 4.35 µM (inactive) and the GI50 (LOX IMVI) was 6.87 µM (inactive). The GI50 (M14) was 4.79 µM (inactive), the GI50 (MCF7) was 2.48 µM (inactive) and the GI50 (MDA-MB-231) was 7.78 µM (inactive). For the same compound, the GI50 (MDA-MB-435) was 2.81 µM (inactive), the GI50 (MDA-N) was 1.89 µM (inactive) and the GI50 (MOLT-4) was 3.88 µM (inactive). The GI50 (Malme-3M) was 9.02 µM (inactive), the GI50 (NCI-H226) was 8.32 µM (inactive) and the GI50 (NCI-H23) was 11.5 µM (inactive). The GI50 (NCI-H460) was 3.33 µM (inactive), the GI50 (NCI-H522) was 3.34 µM (inactive) and the GI50 (NCI/ADR-RES) was 3.61 µM (inactive). The GI50 (OVCAR-3) was 4.79 µM (inactive), the GI50 (OVCAR-4) was 10.3 µM (inactive) and the GI50 (OVCAR-5) was 18.5 µM (inactive). For the same compound, the GI50 (OVCAR-8) was 8.69 µM (inactive), the GI50 (PC-3) was 5.3 µM (inactive) and the GI50 (RXF 393) was 7.03 µM (inactive). The GI50 (SF-268) was 6.79 µM (inactive), the GI50 (SF-295) was 6.32 µM (inactive) and the GI50 (SF-539) was 4.27 µM (inactive). The GI50 (SK-MEL-28) was 19 µM (inactive), the GI50 (SK-MEL-2) was 4.28 µM (inactive) and the GI50 (SK-MEL-5) was 4.36 µM (inactive). For the same compound, the GI50 (SK-OV-3) was 16.1 µM (inactive), the GI50 (SN12C) was 7.98 µM (inactive) and the GI50 (SNB-19) was 8.41 µM (inactive). For the same compound, the GI50 (SNB-75) was 3.9 µM (inactive), the GI50 (SR) was 3.79 µM (inactive) and the GI50 (SW-620) was 4.8 µM (inactive). The GI50 (T47D) was 9.04 µM (inactive), the GI50 (TK-10) was 4.45 µM (inactive) and the GI50 (U-251) was 5.22 µM (inactive). The GI50 (UACC-257) was 3.08 µM (inactive), the GI50 (UACC-62) was 3.21 µM (inactive) and the GI50 (UO-31) was 9.66 µM (inactive).
In the case of CC(C)C1CSC2N1C(=O)C2(OCc1ccccc1)C1CC1 (stereo not given), the GI50 (786-0) is reported as > 100 µM (inactive), the GI50 (A498) is reported as 51.3 µM (inactive) and the GI50 (A549) is reported as > 100 µM (inactive). For the same compound, the GI50 (ACHN) was > 100 µM (inactive), the GI50 (BT-549) was > 100 µM (inactive) and the GI50 (CAKI-1) was > 100 µM (inactive). The GI50 (CCRF-CEM) was > 100 µM (inactive), the GI50 (COLO 205) was > 100 µM (inactive) and the GI50 (DU-145) was > 100 µM (inactive). The GI50 (EKVX) was > 100 µM (inactive), the GI50 (HCC 2998) was > 100 µM (inactive) and the GI50 (HCT-116) was > 100 µM (inactive). For the same compound, the GI50 (HCT-15) was > 100 µM, the GI50 (HL-60) was 73.6 µM (inactive) and the GI50 (HOP-62) was > 100 µM (inactive). The GI50 (HOP-92) was > 100 µM (inactive), the GI50 (HT-29) was > 100 µM (inactive) and the GI50 (Hs-578T) was > 100 µM (inactive). For the same compound, the GI50 (IGROV-1) was > 100 µM (inactive), the GI50 (K562) was 67.8 µM (inactive) and the GI50 (KM12) was > 100 µM (inactive). For the same compound, the GI50 (LOX IMVI) was > 100 µM (inactive), the GI50 (M14) was > 100 µM (inactive) and the GI50 (MCF7) was > 100 µM (inactive). For the same compound, the GI50 (MDA-MB-231) was > 100 µM (inactive), the GI50 (MDA-MB-435) was > 100 µM (inactive) and the GI50 (MDA-N) was > 100 µM (inactive). For the same compound, the GI50 (MOLT-4) was 97.1 µM (inactive), the GI50 (Malme-3M) was > 100 µM (inactive) and the GI50 (NCI-H226) was > 100 µM (inactive). The GI50 (NCI-H23) was > 100 µM (inactive), the GI50 (NCI-H460) was > 100 µM (inactive) and the GI50 (NCI-H522) was > 100 µM (inactive). The GI50 (NCI/ADR-RES) was 63.4 µM (inactive), the GI50 (OVCAR-3) was > 100 µM (inactive) and the GI50 (OVCAR-4) was > 100 µM (inactive). The GI50 (OVCAR-5) was > 100 µM (inactive), the GI50 (OVCAR-8) was > 100 µM (inactive) and the GI50 (PC-3) was 69 µM (inactive). For the same compound, the GI50 (RPMI-8226) was 89.1 µM (inactive), the GI50 (RXF 393) was > 100 µM (inactive) and the GI50 (SF-268) was > 100 µM (inactive). For the same compound, the GI50 (SF-295) was > 100 µM (inactive), the GI50 (SF-539) was > 100 µM (inactive) and the GI50 (SK-MEL-28) was > 100 µM (inactive). The GI50 (SK-MEL-5) was > 100 µM (inactive), the GI50 (SK-OV-3) was > 100 µM (inactive) and the GI50 (SN12C) was > 100 µM (inactive). For the same compound, the GI50 (SNB-19) was > 100 µM (inactive), the GI50 (SNB-75) was 97.7 µM (inactive) and the GI50 (SR) was > 100 µM (inactive). The GI50 (SW-620) was > 100 µM (inactive), the GI50 (T47D) was 97.5 µM (inactive) and the GI50 (TK-10) was > 100 µM (inactive). The GI50 (U-251) was > 100 µM (inactive), the GI50 (UACC-257) was > 100 µM (inactive) and the GI50 (UACC-62) was > 100 µM (inactive). For the same compound, the GI50 (UO-31) was > 100 µM (inactive).
